Data: ChEMBL document CHEMBL1201862, “PubChem BioAssay data set” (2004)
Blank lines part the entries; values can stand above or below the compound they belong to. Active and inactive are the calls of the source.

Key:
Cytochrome P450 2D6 = Cytochrome P450 2D6 (Homo sapiens, UniProt P10635); test: qHTS Assay for Inhibitors and Substrates of Cytochrome P450 2D6. [Related pubchem assays: 410 ]; type: ADME; conditions: read-out: Potency
Cytochrome P450 2C9 = Cytochrome P450 2C9 (Homo sapiens, UniProt P11712); conditions: Potency
[1] = target: Voltage-gated N-type calcium channel alpha-1B subunit/Amyloid beta A4 precursor protein-binding family A member 1 (Homo sapiens, UniProt Q00975+Q02410); test: disruptors of Mint-PDZ/N-type channel peptide interaction – biochemical, HTRF, set 2, SAR follow-up (AID 434980); type: functional
[2] = target: Melanin-concentrating hormone receptor 1 (Homo sapiens, UniProt Q99705); test: Fluorescence-based counterscreen for antagonists of the G-protein coupled receptor 7 (GPR7): cell-based high throughput dose response assay to identify antagonists of the melanin-concentrating hormone receptor 1 (MCHR1).; type: functional
[3] = target: Neuropeptides B/W receptor type 1 (Homo sapiens, UniProt P48145); test: Fluorescence-based dose response cell-based high throughput screening assay to identify antagonists of the G-protein coupled receptor 7 (GPR7). [Related pubchem assays: 1952 (Screening assay (GPR7 antagonists).), 1880 (Summary AID.)]; type: functional
HEK293 = test: Fluorescence-based counterscreen for potentiators or agonists of NPY-Y1: cell-based high-throughput dose response assay for inhibitors of cyclic nucleotide gated ion channel (CNGC) activity. In this assay, the parental HEK293 cell line transfected with a cyclic-nucleotide gated ion channel (CNGC)-based cAMP sensor is used to measure inhibition of isoproterenol-induced CNGC …; type: functional; conditions: Homo sapiens
[4] = target: T1, Neuropeptide Y receptor type 2 (Homo sapiens, UniProt P49146); test: Fluorescence-based counterscreen for agonists of NPY-Y1: cell-based high-throughput dose response assay for agonists of NPY-Y2.; type: functional
T1 sequence (P49146 whole entry): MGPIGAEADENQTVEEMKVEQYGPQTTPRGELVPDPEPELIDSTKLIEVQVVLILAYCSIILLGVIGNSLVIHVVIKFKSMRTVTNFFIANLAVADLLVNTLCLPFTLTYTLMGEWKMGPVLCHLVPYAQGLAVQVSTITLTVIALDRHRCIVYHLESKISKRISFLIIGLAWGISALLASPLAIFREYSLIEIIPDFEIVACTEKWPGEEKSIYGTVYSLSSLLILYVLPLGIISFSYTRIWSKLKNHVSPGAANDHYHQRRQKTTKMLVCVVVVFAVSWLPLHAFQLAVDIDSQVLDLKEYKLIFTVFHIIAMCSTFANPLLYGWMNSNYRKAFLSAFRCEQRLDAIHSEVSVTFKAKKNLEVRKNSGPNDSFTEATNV

[5] = target: T2, Neuropeptide Y receptor type 1 (Homo sapiens, UniProt P25929); test: Fluorescence-based dose response cell-based high-throughput screening assay for agonists of NPY-Y1. [Related pubchem assays: 1697 (Screening assay (NPY-Y1 agonists).), 1359 (Screening assay (NPY-Y2 potentiators or agonists).), 1304 (Screening assay (NPY-Y1 potentiators or agonists).), 1704 (Screening assay (CNGC inhibitors).), 1791 (Summary AID.)]; type: functional
T2 sequence (P25929 whole entry): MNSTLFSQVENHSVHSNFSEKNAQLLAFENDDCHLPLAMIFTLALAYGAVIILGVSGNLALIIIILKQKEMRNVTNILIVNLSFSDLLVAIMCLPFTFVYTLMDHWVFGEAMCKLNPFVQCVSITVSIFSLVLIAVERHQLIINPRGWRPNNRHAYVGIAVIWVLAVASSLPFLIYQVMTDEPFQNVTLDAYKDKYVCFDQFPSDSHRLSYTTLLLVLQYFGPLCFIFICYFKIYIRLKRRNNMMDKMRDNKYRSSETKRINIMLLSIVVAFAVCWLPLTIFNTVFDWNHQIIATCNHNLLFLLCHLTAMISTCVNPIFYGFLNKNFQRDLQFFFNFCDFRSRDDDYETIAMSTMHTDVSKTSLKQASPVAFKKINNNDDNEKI

X-box-binding protein 1 = X-box-binding protein 1 (Homo sapiens, UniProt P17861); type: functional, Cricetulus griseus;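 also: confirmatory dose-response counter-screen serving a CHOP assay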
[6] = growth suppression of PTEN-null colon cells, dose response, cell-based, HCT116 PTEN knockout (AID 1047); type: functional;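 also: HCT116 colon tumor cells with PTEN knocked out; cells exposed to compound for 60 hours before readout; potency for loss of cell viability measured by luminescence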
[7] = growth suppression of beta-catenin-knockout colon cells, dose response, cell-based, HCT116, human colon tumor (AID 1045); type: functional;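 also: HCT116 colon tumor cells with beta catenin knocked out; cells exposed to compound for 60 hours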
[8] = target: T3, Eukaryotic translation initiation factor 2-alpha kinase 3 (Homo sapiens, UniProt Q9NZJ5); test: Counterscreen assay for PERK inhibitors: Dose response cell-based high throughput screening assay to measure inhibition of PERK at 6 hours. [Related pubchem assays: 1522, 1416 ]; type: functional
[9] = target: Mitochondrial peptide methionine sulfoxide reductase (Bos taurus, UniProt P54149); type: functional;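 also: absorbance read-out, biochemical high-throughput dose-response screen for MsrA inhibitors, confirmatory; recombinant bovine MsrA coupled to E. coli TrxB with NADPH and selenocystamine; potency is for inhibitors of MsrA activity on DMSO substrate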
[10] = target: T3, Eukaryotic translation initiation factor 2-alpha kinase 3; test: Dose response cell-based high-throughput screening assay to measure PERK inhibition. [Related pubchem assays: 1416 ]; type: functional
[11] = HEp-2 cell cytotoxicity, dose response, cytotoxicity control for RSV inhibitor project, HTS (AID 2410); type: functional; conditions: human respiratory syncytial virus
Caspase-7 = Caspase-7 (Homo sapiens, UniProt P55210); test: procaspase-7 activators, dose response, dual procaspase-3/-7 activator project, biochemical, absorbance, human (AID 504330)
Caspase-3 = target: T4, Caspase-3 (Homo sapiens, UniProt P42574); test: procaspase-3 activation potency of dual hits, dose response, counter-screen for dual procaspase-3/7 activator project, biochemical, absorbance, PC-3 D3A mutant (AID 504328)
T4 sequence (P42574 whole entry): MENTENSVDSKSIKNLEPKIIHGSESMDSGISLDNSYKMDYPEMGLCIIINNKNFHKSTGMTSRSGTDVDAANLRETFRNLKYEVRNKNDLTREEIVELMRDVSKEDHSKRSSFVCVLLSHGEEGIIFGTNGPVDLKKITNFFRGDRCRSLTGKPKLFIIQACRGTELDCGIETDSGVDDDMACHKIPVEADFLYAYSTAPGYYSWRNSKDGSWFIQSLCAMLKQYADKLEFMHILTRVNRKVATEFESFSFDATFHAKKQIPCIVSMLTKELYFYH

[12] = target: Polyadenylate-binding protein 1 (Homo sapiens, UniProt P11940); test: PABP poly(A) RNA binding inhibitors, primary screen, biochemical, fluorescence polarization, uHTS (AID 2014)
[13] = target: Eukaryotic translation initiation factor 4H (Homo sapiens, UniProt Q15056); test: human eIF4H binding inhibitors, primary screen, translation initiation inhibitor project, biochemical, uHTS, fluorescence polarization (AID 2012)
Genome polyprotein = Genome polyprotein (dengue virus type 2, UniProt P29990); test: Dengue-2 NS5 methyltransferase inhibitors, primary screen, biochemical, confirmation dose response (AID 588689); type: functional
[14] = C. albicans growth with fluconazole, confirmation, fluorescence, retest (AID 2467); type: functional, cell-based
Protein Tat = Protein Tat (Human immunodeficiency virus type 1 group M subtype B (isolate HXB2)(HIV-1), UniProt P04608); type: functional;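 also: tat binding to TAR RNA read out by fluorescence polarization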
[15] = NIH-3T3 fibroblast cytotoxicity, dose response, cytotoxicity control, cell-based, fluorescence, Alamar Blue, secondary assay (AID 2327); type: functional;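 also: NIH-3T3 mouse fibroblasts cultured with fluconazole at 8 µg/mL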
Estrogen receptor beta = Estrogen receptor beta (Homo sapiens, UniProt Q92731);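 also: recombinant ER-beta bound to coactivator SRC1 peptide in presence of estradiol agonist; inhibitors block coactivator peptide binding and lower the FRET signal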
[16] = target: T5, Sentrin-specific protease 1 (Homo sapiens, UniProt Q9P0U3); test: potency of human SENP1 inhibitors, dose response, biochemical, kinetic FRET (AID 651697); type: functional; conditions: read-out: IC50_Mean
T5 sequence (Q9P0U3 whole entry): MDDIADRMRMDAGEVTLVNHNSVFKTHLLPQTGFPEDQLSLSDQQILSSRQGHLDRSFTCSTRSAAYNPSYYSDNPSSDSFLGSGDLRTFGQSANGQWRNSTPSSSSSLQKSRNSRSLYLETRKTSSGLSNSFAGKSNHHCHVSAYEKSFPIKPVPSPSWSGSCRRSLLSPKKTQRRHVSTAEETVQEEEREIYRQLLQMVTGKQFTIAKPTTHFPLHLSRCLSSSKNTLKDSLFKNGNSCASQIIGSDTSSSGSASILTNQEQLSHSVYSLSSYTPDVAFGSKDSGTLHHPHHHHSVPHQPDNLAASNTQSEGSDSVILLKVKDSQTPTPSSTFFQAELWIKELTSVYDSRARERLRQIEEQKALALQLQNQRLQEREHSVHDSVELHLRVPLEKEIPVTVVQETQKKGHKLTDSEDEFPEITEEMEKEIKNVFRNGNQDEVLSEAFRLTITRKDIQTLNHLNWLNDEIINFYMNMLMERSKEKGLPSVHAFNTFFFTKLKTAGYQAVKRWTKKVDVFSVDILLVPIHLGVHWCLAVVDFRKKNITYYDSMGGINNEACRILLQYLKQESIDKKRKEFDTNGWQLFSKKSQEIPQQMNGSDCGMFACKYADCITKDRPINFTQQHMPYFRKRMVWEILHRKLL

[17] = target: T5, Sentrin-specific protease 1; test: Dose response confirmation of small molecule inhibitors of the catalytic domain of the SUMO protease, SENP1 in a FRET assay.; type: functional; conditions: read-out: IC50_Mean
Protein Rev = Protein Rev (Human immunodeficiency virus type 1 group M subtype B (isolate HXB2)(HIV-1), UniProt P04618); test: inhibitors of Rev binding to RRE RNA, dose response, biochemical, fluorescence polarization, HIV-1 (AID 434976); set-up: species or system Human immunodeficiency virus 1
[18] = target: Female germline-specific tumor suppressor gld-1 (Caenorhabditis elegans, UniProt Q17339); test: inhibitors of GLD-1 binding to TGE RNA, dose response, biochemical, fluorescence polarization, C. elegans (AID 2802);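 also: fluorescence polarization of labeled TGE RNA bound by purified gld-1 protein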
H9c2 = test: cells; type: functional, cell-based; conditions: Rattus norvegicus, H9c2, Myocardium;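 also: confirmatory concentration-response retest of ultra-high-throughput screening hits for modulation of myocardial damage; cell death induced by hydrogen peroxide oxidative stress; compound pretreatment for 60 min then peroxide exposure for 2 h; potency is for protecting the cells against peroxide damage rather than for killing them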
[19] = target: T6, Dual specificity protein phosphatase 6 (Rattus norvegicus, UniProt Q64346)
T6 sequence (Q64346 whole entry): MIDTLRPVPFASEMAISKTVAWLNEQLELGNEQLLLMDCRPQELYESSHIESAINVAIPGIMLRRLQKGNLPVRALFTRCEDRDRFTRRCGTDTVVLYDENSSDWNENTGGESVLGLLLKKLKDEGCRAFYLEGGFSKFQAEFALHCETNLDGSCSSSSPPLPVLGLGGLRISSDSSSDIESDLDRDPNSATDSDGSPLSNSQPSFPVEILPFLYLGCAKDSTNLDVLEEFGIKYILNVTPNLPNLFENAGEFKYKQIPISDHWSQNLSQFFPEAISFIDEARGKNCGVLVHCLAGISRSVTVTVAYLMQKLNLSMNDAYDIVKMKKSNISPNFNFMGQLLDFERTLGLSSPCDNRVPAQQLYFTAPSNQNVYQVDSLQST

[20] = target: T7, Tyrosine-protein phosphatase non-receptor type 7 (Homo sapiens, UniProt P35236); type: functional
T7 sequence (P35236 whole entry): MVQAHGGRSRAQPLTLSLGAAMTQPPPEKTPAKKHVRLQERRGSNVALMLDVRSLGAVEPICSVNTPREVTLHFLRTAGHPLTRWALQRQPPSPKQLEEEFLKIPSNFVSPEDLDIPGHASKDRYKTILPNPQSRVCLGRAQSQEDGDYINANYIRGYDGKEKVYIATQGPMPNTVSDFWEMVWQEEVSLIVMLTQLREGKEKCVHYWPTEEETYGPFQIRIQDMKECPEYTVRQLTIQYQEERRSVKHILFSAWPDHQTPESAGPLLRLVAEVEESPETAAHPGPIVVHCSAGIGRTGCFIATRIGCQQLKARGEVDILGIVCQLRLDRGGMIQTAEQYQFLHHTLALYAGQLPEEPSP

[21] = target: Glyceraldehyde-3-phosphate dehydrogenase (Homo sapiens, UniProt P04406)
[22] = target: T6, Dual specificity protein phosphatase 6; type: functional

T3 sequence (Q9NZJ5 whole entry): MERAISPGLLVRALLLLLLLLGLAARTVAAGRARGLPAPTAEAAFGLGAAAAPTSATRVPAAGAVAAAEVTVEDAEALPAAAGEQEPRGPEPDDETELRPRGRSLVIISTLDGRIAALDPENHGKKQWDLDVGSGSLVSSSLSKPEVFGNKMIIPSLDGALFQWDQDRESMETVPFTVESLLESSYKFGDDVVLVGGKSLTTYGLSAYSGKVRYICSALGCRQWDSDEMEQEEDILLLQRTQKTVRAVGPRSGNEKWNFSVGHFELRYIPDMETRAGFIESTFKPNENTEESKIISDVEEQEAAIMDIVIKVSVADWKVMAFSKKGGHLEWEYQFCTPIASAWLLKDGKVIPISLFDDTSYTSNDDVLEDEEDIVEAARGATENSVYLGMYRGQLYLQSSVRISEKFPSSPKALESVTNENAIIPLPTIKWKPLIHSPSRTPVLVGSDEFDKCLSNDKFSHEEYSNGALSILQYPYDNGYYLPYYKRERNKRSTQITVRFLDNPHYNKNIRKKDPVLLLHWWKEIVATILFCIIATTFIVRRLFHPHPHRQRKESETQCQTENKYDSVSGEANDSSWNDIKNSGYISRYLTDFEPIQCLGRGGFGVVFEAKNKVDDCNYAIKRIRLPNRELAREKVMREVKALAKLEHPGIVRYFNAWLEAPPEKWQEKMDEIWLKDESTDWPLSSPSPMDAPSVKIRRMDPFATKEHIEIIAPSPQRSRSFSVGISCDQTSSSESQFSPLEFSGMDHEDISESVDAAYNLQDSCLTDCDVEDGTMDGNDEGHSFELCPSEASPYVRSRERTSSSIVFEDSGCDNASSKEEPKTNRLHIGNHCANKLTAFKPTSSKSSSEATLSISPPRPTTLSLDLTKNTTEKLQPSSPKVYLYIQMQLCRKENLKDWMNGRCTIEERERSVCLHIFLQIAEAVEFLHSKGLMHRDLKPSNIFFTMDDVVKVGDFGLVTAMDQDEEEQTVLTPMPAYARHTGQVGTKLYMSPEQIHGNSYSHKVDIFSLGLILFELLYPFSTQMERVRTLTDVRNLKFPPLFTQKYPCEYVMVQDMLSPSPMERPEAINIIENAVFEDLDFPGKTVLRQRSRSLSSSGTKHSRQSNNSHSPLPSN
Sequence of Cytochrome P450 2C9 (P11712 whole entry): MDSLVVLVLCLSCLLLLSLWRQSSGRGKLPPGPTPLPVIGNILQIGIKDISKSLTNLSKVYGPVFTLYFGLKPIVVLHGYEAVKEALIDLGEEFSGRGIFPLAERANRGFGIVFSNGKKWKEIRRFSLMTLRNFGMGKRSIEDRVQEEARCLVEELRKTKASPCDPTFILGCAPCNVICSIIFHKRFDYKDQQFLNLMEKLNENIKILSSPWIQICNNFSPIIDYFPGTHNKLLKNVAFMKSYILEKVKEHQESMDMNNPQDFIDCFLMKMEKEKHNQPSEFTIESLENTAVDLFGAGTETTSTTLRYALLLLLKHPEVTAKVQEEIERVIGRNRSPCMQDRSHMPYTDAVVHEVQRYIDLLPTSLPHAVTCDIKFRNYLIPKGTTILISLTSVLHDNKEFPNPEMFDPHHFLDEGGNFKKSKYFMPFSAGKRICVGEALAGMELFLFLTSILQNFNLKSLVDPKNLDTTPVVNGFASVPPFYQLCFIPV
Sequence of Female germline-specific tumor suppressor gld-1 (Q17339 whole entry): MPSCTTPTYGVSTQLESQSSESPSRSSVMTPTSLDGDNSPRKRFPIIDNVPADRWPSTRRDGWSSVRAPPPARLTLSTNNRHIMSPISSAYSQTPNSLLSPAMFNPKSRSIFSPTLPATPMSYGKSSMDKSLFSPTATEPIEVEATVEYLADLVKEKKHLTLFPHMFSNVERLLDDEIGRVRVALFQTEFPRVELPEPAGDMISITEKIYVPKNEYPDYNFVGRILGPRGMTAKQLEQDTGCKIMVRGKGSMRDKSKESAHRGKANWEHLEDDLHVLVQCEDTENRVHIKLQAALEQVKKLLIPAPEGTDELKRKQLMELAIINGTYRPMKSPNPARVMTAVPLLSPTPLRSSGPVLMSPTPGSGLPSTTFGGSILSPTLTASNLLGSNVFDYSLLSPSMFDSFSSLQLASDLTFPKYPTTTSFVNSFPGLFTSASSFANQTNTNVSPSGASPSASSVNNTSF
Sequence of Genome polyprotein (P29990 2492-3391 limits assumed): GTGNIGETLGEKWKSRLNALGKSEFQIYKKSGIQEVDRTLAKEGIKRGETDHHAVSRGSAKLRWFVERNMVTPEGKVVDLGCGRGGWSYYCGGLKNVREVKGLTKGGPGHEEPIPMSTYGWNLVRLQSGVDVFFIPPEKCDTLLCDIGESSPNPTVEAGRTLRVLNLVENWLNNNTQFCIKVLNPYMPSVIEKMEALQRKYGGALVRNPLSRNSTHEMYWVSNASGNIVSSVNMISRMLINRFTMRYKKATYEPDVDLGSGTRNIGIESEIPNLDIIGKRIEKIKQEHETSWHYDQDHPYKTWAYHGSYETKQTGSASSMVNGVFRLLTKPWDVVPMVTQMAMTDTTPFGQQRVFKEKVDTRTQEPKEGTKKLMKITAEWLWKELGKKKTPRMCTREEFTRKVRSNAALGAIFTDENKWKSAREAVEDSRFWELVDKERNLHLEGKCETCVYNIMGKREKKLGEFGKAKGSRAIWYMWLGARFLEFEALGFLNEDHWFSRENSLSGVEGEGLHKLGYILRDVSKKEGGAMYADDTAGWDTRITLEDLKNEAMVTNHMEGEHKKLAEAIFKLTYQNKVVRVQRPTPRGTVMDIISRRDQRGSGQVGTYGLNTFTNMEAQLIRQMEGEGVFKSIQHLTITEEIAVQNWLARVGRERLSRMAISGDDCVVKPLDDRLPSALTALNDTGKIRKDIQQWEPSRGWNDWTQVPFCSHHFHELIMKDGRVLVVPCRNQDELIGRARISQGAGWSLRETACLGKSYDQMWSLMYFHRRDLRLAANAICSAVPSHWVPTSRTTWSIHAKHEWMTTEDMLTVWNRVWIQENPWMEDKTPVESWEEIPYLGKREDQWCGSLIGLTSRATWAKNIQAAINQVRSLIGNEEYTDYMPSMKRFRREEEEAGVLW
Sequence of Polyadenylate-binding protein 1 (P11940 whole entry): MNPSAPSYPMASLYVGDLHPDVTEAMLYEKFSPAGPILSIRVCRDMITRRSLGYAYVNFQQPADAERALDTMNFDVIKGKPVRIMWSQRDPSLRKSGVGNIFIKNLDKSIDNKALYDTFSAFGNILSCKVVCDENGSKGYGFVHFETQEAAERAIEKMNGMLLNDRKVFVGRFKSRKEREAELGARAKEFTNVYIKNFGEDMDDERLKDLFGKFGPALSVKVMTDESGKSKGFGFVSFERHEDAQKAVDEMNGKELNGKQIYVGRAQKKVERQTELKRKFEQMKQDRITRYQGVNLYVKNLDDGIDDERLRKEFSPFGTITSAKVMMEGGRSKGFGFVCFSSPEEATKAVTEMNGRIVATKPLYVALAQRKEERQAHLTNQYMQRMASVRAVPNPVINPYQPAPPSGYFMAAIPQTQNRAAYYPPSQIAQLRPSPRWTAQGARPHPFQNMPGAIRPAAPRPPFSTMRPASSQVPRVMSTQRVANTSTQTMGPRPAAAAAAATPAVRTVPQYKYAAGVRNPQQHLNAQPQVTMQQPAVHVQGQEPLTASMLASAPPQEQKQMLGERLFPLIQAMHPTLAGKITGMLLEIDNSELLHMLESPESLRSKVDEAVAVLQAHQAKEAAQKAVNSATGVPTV
Sequence of Estrogen receptor beta (Q92731 whole entry): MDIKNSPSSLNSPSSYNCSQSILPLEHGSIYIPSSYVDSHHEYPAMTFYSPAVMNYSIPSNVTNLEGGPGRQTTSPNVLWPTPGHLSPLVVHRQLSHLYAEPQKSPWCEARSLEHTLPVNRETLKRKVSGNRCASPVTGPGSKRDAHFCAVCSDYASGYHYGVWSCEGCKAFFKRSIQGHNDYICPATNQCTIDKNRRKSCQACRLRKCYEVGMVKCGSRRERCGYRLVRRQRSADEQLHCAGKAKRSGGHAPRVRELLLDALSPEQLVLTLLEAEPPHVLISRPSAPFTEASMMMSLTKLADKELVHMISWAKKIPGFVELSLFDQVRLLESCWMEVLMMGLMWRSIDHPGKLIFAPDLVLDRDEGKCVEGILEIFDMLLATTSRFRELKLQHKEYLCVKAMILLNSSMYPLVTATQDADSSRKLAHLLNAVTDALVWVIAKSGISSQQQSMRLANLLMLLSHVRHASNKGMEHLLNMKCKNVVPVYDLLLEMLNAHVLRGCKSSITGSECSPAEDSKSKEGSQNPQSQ
Sequence of X-box-binding protein 1 (P17861 whole entry): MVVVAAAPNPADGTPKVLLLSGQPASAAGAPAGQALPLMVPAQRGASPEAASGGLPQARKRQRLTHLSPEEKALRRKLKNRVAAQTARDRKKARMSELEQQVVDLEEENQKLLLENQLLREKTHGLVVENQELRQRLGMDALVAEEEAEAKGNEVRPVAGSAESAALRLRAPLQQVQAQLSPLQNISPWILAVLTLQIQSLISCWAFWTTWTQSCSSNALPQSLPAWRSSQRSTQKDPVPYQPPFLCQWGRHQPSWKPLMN
Sequence of Neuropeptides B/W receptor type 1 (P48145 whole entry): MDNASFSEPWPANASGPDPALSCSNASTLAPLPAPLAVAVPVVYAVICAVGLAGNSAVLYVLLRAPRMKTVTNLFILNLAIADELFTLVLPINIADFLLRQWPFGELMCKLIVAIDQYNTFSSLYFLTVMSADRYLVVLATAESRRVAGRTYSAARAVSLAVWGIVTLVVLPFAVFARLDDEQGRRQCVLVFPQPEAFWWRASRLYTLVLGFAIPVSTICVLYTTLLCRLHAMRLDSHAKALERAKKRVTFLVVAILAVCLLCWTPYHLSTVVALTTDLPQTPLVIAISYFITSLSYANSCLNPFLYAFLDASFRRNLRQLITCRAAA
Sequence of Mitochondrial peptide methionine sulfoxide reductase (P54149 whole entry): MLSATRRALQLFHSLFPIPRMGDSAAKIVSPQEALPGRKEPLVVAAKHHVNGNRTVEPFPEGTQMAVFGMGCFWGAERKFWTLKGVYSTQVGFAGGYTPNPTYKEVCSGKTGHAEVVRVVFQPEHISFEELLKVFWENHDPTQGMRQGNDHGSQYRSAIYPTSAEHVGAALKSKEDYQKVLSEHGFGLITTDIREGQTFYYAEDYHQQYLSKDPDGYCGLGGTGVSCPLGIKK

- AC50 (Cytochrome P450 2D6): 39.8 µM (inconclusive)
- AC50 (Cytochrome P450 2C9): 12.6 µM (inconclusive)
SMILES: NCCC[C@@H](CC(=O)N[C@@H]1CCCC[C@H]1C(=O)N[C@H](CC(=O)N[C@@H](CCC(=O)O)CC(=O)O)Cc1c[nH]c2ccccc12)NC(=O)C[C@H](CO)NC(=O)[C@@H]1CNCC[C@H]1N

- IC50 [1]: > 56.8 µM (inactive)
SMILES: O=C(NCCCO)c1cc(-c2ccco2)nc2ccccc12

- IC50 [2]: > 43.8 µM (not active)
- IC50 [3]: > 43.8 µM (not active)
SMILES: Nc1c(C(=O)NCc2ccc3c(c2)OCO3)nnn1Cc1ccc(Br)cc1

Further lines, the compound ahead of its results:

SMILES: CC(C)c1ccc2[nH]c(O)c(N=NC(=O)c3cccc(S(=O)(=O)Nc4cccc(Cl)c4)c3)c2c1
- IC50 (HEK293): > 35.4 µM (not active)
- EC50 [4]: > 35.4 µM (not active)
- EC50 [5]: > 35.4 µM (not active)

SMILES: COc1ccc(-c2[nH]ncc2/C=C(/C#N)C(=O)NC2CCCCCC2)cc1
- Absolute IC50 (XBP1) (X-box-binding protein 1): 10 µM
- EC50 [6]: 12.6 µM (active)
- EC50 [7]: 11.3 µM (active)

SMILES: NC(=S)N/N=C/c1ccc(/C=N/NC(N)=S)cc1
- EC50 [8]: > 55.7 µM (not active)
- IC50 [9]: 155 µM (inactive)
- EC50 [10]: > 55.7 µM (not active)

SMILES: COc1cc2c(cc1OC)C(C)N(C(=O)c1cc3c(s1)-c1ccccc1OC3)CC2 (centres undefined)
- CC50 [11]: 27.4 µM (active)
- EC50 (Caspase-7): > 85.3 µM (inactive)
- EC50 (Caspase-3): > 85.3 µM (inactive)

SMILES: Oc1ccc(/C=N/NP(=S)(c2ccccc2)c2ccccc2)c(O)c1O
- IC50 [12]: > 100 µM (inactive)
- IC50 [13]: 65.3 µM (active)
- IC50 (Genome polyprotein): > 100 µM (active)
- EC50 [14]: > 38 µM (not active)
- IC50 (Protein Tat): 25.3 µM (inconclusive)
- EC50 [15]: > 150 µM (inactive)

SMILES: COc1ccc(Nc2nnc(SCc3cc(=O)n4ccsc4n3)s2)cc1
- IC50 (Estrogen receptor beta): > 50 µM (not active)
- CC50 [11]: 36.5 µM (active)
- IC50 [16]: 26.2 µM (inactive)
- IC50 [17]: 16.3 µM (active)
- IC50 (Protein Rev): > 75.4 µM (not active)
- IC50 [18]: 45.5 µM (inactive)
- IC50 (H9c2): 7.45 µM (active)

SMILES: O=C(O)C1Nc2cc(C(F)(F)F)ccc2S(=O)(=O)N1 (centres undefined)
- IC50 [19]: > 100 µM (inactive)
- IC50 [20]: > 100 µM (not active)
- IC50 [21]: > 100 µM (not active)
- IC50 [22]: > 100 µM (inactive)
